Legend:
[1] = Stability of analytes in spiked plasma samples under storage conditions; format: in vitro ADME, human; settings: for Measured value, Stored at -80℃ for 7 days / Measured value, Automatic sampler 15℃ for 24 h / Measured value, Freeze-thaw for 3 cycles / Measured value, At 4℃ for 12 h / Measured value, At room temperature for 6 h: HPLC-MS/MS, n = 5; for Measured value, Automatic sampler 15℃ for 24 h: automatic sampler 15 ℃ 24 h; for Measured value, Freeze-thaw for 3 cycles: frozen at -80 °C and thawed at room temperature; for Measured value, At 4℃ for 12 h: refrigerator 4 °C 12 h
Procedure: Plasma samples with low, medium, and high mass concentrations were prepared (the mass concentrations of colistin sulfate were 0.1, 1, and 8 µg/mL, respectively, and those of tigecycline were 0.05, 0.5, and 4 µg/mL, respectively). Five replicates of each concentration were prepared and placed in a refrigerator at 4 °C for 12 h, at room temperature for 6 h, and in an automatic sampler at 15 ℃ for 24 h. The samples were, on three occasions, frozen at − 80 °C and thawed at room temperature, and then placed in a − 80 °C refrigerator for seven days. The concentrations and RSDs of colistin sulfate and tigecycline in the plasma samples were calculated based on the accompanying standard curve of the day to evaluate their stabilities.

[2] = Plasma trough and peak concentrations in patients on intravenous polymyxin and tigecycline (HPLC-MS/MS); settings: First dose 100 mg maintenance dose 50 mg q12h iv, plasma, HPLC-MS/MS; for Tigecycline Peak concentration: 30 min after 7th administration; for Tigecycline Trough concentration: before 7th administration
From the text: Plasma samples were collected from patients receiving simultaneous intravenous polymyxin and tigecycline treatment. Inclusion criteria: ① Patients receiving simultaneous intravenous polymyxin and tigecycline treatment; ② Age ≥ 18 years; ③ Patients who consent to the monitoring of polymyxin and tigecycline blood drug concentrations during treatment. Exclusion criteria: ① Pregnant or lactating women; ② Treatment duration < 3 days; ③ Local administration; ④ Blood dialysis treatment. Once the blood drug concentration reached a steady state, 3 ml of venous blood was collected before and 30 min after the seventh administration to measure the peak and trough concentrations. This study was conducted with approval from the Ethics Committee of Second Hospital of Hebei Medical University (2020-R551). This study was conducted in accordance with the declaration of Helsinki.
Two hundred microliters of the plasma sample were adopted, with 20 µL of the internal standard added, and it was vortexed for 20 s. Two hundred microliters of 5% trichloroacetic acid was added for acidification and vortexed for 10 s. Two hundred microliters of methanol was added for extraction, vortexed for 2 min, and centrifuged at 10,900 r/min for 5 min. Two hundred microliters of the supernatant were aspirated into the injection bottle, and 10 µL of the sample was injected for the HPLC–MS/MS analysis.
All patients received an initial dose of 100 mg and a maintenance dose of 50 mg q12h for tigecycline. Three milliliters of venous blood were collected before and after the seventh administration to measure the peak and trough concentrations of the drugs.

[3] = plasma QC high, nominal colistin sulfate 8 µg/mL, tigecycline 4 µg/mL
[4] = plasma QC low, nominal colistin sulfate 0.1 µg/mL, tigecycline 0.05 µg/mL
[5] = plasma QC medium, nominal colistin sulfate 1 µg/mL, tigecycline 0.5 µg/mL
[6] = patient 1 (BMI 27.04 kg/m^2, CrCL 107 ml/min, ALB 33.8 g/L)
[7] = patient 2 (BMI 27.69 kg/m^2, CrCL 36 ml/min, ALB 30.35 g/L)
[8] = patient 3 (BMI 23.88 kg/m^2, CrCL 90 ml/min, ALB 26.80 g/L)
[9] = patient 4 (BMI 18.72 kg/m^2, CrCL 111 ml/min, ALB 32.50 g/L)
[10] = patient 5 (BMI 22.14 kg/m^2, CrCL 84 ml/min, ALB 28.00 g/L)
[11] = patient 6 (Femaee, BMI 19.3 kg/m^2, CrCL 161 ml/min, ALB 35.3 g/L)
[12] = patient 7 (BMI 24.16 kg/m^2, CrCL 59 ml/min, ALB 36.72 g/L)
[13] = patient 8 (BMI 27.44 kg/m^2, CrCL 98 ml/min, ALB 33.30 g/L)
[14] = patient 9 (BMI 20.91 kg/m^2, CrCL 106 ml/min, ALB 32.71 g/L)
[15] = patient 10 (BMI 21.95 kg/m^2, CrCL 129 ml/min, ALB 31.89 g/L)
[16] = patient 11 (BMI 22.51 kg/m^2, CrCL 27 ml/min, ALB 27.10 g/L)
[17] = patient 12 (BMI 23.71 kg/m^2, CrCL 170 ml/min, ALB 32.50 g/L)

CN(C)c1cc(NC(=O)CNC(C)(C)C)c(O)c2c1C[C@H]1C[C@H]3[C@H](N(C)C)C(O)=C(C(N)=O)C(=O)[C@@]3(O)C(O)=C1C2=O [Tigecycline, tigecycline]
Measured value, Stored at -80℃ for 7 days ([1]; plasma QC high, nominal colistin sulfate 8 µg/mL, tigecycline 4 µg/mL, -80 °C 7 days): 4.30 ± 0.03 µg/mL
Measured value, Automatic sampler 15℃ for 24 h [1, 3]: 4.00 ± 0.26 µg/mL
Measured value, Freeze-thaw for 3 cycles [1, 3]: 3.82 ± 0.45 µg/mL
Measured value, At 4℃ for 12 h [1, 3]: 3.93 ± 0.36 µg/mL
Measured value, At room temperature for 6 h ([1]; plasma QC high, nominal colistin sulfate 8 µg/mL, tigecycline 4 µg/mL, room temperature 6 h): 4.87 ± 0.07 µg/mL
Measured value, Stored at -80℃ for 7 days ([1]; plasma QC low, nominal colistin sulfate 0.1 µg/mL, tigecycline 0.05 µg/mL, -80 °C 7 days): 0.05 ± 0.00 µg/mL
Measured value, Automatic sampler 15℃ for 24 h [1, 4]: 0.05 ± 0.00 µg/mL
Measured value, Freeze-thaw for 3 cycles [1, 4]: 0.05 ± 0.00 µg/mL
Measured value, At 4℃ for 12 h [1, 4]: 0.05 ± 0.00 µg/mL
Measured value, At room temperature for 6 h ([1]; plasma QC low, nominal colistin sulfate 0.1 µg/mL, tigecycline 0.05 µg/mL, room temperature 6 h): 0.05 ± 0.00 µg/mL
Measured value, Stored at -80℃ for 7 days ([1]; plasma QC medium, nominal colistin sulfate 1 µg/mL, tigecycline 0.5 µg/mL, -80 °C 7 days): 0.46 ± 0.03 µg/mL
Measured value, Automatic sampler 15℃ for 24 h [1, 5]: 0.49 ± 0.03 µg/mL
Measured value, Freeze-thaw for 3 cycles [1, 5]: 0.52 ± 0.04 µg/mL
Measured value, At 4℃ for 12 h [1, 5]: 0.46 ± 0.01 µg/mL
Measured value, At room temperature for 6 h ([1]; plasma QC medium, nominal colistin sulfate 1 µg/mL, tigecycline 0.5 µg/mL, room temperature 6 h): 0.54 ± 0.03 µg/mL
stability under the above conditions ([1]; plasma samples, 4 °C 12 h, room temperature 6 h, autosampler 15 ℃ 24 h, 3 freeze-thaw cycles, -80 °C 7 days): good stability
Tigecycline Peak concentration [2, 6]: 1.72 µg/mL
Tigecycline Trough concentration [2, 6]: 0.79 µg/mL
Tigecycline Peak concentration [2, 7]: 1.68 µg/mL
Tigecycline Trough concentration [2, 7]: 0.81 µg/mL
Tigecycline Peak concentration [2, 8]: 1.67 µg/mL
Tigecycline Trough concentration [2, 8]: 0.77 µg/mL
Tigecycline Peak concentration [2, 9]: 1.47 µg/mL
Tigecycline Trough concentration [2, 9]: 0.69 µg/mL
Tigecycline Peak concentration [2, 10]: 1.17 µg/mL
Tigecycline Trough concentration [2, 10]: 0.58 µg/mL
Tigecycline Peak concentration [2, 11]: 1.11 µg/mL
Tigecycline Trough concentration [2, 11]: 0.66 µg/mL
Tigecycline Peak concentration [2, 12]: 1.01 µg/mL
Tigecycline Trough concentration [2, 12]: 0.58 µg/mL
Tigecycline Peak concentration [2, 13]: 0.92 µg/mL
Tigecycline Trough concentration [2, 13]: 0.63 µg/mL
Tigecycline Peak concentration [2, 14]: 1.22 µg/mL
Tigecycline Trough concentration [2, 14]: 0.65 µg/mL
Tigecycline Peak concentration [2, 15]: 1.08 µg/mL
Tigecycline Trough concentration [2, 15]: 0.33 µg/mL
Tigecycline Peak concentration [2, 16]: 0.99 µg/mL
Tigecycline Trough concentration [2, 16]: 0.25 µg/mL
Tigecycline Peak concentration [2, 17]: 1.78 µg/mL
Tigecycline Trough concentration [2, 17]: 0.48 µg/mL

Source: PMC10787398, “Simultaneous determination of colistin sulfate and tigecycline in human plasma by liquid chromatography-tandem mass spectrometry method” (BMC Chemistry, 2024)
